The test system of assay [1] is human monocyte stimulated cytokine production (TNF-α). The assay can be described thus: Monocyte assay (LPS-stimulated TNF-α production). The conditions noted are these: for IC50: 24 h, 200 ng/mL LPS, TNF-α by ELISA. It counts as cell-based. In a few lines:
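Human CD14+ monocytes were purified from blood and plated at 1×10^6 cells/mL in RPMI 1640 with 10% FBS. Compound was added 30 min before stimulation with 200 ng/mL LPS (0.1% DMSO final), followed by 24 hrs at 37 C. Supernatant TNF-α was measured by ELISA, and viability by trypan blue exclusion.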
(In general: In an ELISA, binding on a coated surface is turned into a signal by an enzyme label.)

Assay [2] concerns the target T1, Recombinant human IKKβ (residues 1-737) (Homo sapiens, UniProt O14920).
T1 construct: Recombinant human IKKβ (residues 1-737); GST (C); made in house
T1 sequence (O14920 1-737): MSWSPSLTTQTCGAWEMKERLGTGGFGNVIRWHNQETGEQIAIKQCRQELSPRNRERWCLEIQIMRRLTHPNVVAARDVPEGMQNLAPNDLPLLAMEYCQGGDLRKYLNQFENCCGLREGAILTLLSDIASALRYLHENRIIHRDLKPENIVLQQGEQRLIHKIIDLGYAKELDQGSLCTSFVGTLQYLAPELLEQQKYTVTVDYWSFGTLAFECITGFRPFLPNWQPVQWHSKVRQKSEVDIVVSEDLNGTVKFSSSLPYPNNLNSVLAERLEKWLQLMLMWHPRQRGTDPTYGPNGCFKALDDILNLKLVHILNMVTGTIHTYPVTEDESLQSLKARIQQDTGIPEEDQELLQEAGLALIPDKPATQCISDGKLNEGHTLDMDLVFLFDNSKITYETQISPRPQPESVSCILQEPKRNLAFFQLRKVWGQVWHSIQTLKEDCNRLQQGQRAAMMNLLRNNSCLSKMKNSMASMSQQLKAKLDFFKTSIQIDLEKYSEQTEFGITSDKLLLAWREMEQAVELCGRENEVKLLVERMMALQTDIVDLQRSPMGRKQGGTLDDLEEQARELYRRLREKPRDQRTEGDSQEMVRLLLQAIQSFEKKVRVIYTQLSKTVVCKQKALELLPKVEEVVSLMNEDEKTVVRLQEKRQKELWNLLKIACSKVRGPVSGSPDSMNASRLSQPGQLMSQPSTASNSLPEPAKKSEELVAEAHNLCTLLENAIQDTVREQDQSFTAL
The assay can be described thus: IKK2 assay (TR-FRET). It counts as biochemical. Conditions: ATP 1 μM final, read-out: pIC50 against IKK2 (converted). In a few lines:
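Baculovirus-expressed C-terminal GST-tagged IKKβ (0.5-5 nM final) in HEPES pH 7.4, MgCl2, CHAPS, DTT, BSA with 1.7% DMSO; 25 nM GST-IB substrate and 1 μM ATP, 15 min at room temperature. EDTA stop; phospho-Ser32/36 detected by Eu-antibody/APC-anti-GST TR-FRET, 665/620 nm ratio.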

Structures can show the parent of a compound that is named as a salt. Where only a bound is given, the exact number is not on record here.

By inhibition is commonly meant the share of the control response that was lost under treatment.

`CCS(=O)(=O)N1CCC(c2c[nH]c3c(C(N)=O)cc(-c4cncc(CNCC(F)(F)F)c4)cc23)CC1` [Example 63, 3-[1-(ethylsulfonyl)-4-piperidinyl]-5-(5-{[(2,2,2-trifluoroethyl)amino]methyl}-3-pyridinyl)-1H-indole-7-carboxamide]: the inhibition at 0.3 µM in assay [1] (read-out: inhibition at 300 nM in the monocyte assay) lay in the range of 0 to 60%. Further, the IC50 in assay [2] is no more than 10 µM.
Turning to `CCS(=O)(=O)N1CCC(c2c[nH]c3c(C(N)=O)cc(-c4cccc(CN(C)C)c4)cc23)CC1` [Example 64, 5-{3-[(dimethylamino)methyl]phenyl}-3-[1-(ethylsulfonyl)-4-piperidinyl]-1H-indole-7-carboxamide], the IC50 in assay [1] is no more than 1.5 µM; in assay [2], no more than 10 µM.
For `CCN(C)Cc1cc(-c2cc(C(N)=O)c3[nH]cc(C4CCN(S(=O)(=O)CC)CC4)c3c2)cs1` [Example 65, 5-(5-{[ethyl(methyl)amino]methyl}-3-thienyl)-3-[1-(ethylsulfonyl)-4-piperidinyl]-1H-indole-7-carboxamide trifluoroacetate] the same measures were no more than 1.5 µM and no more than 10 µM.
As to `CCN(CC)CCN(C)Cc1cc(-c2cc(C(N)=O)c3[nH]cc(C4CCN(S(=O)(=O)CC)CC4)c3c2)cs1` [Example 66, 5-(5-{[[2-(diethylamino)ethyl](methyl)amino]methyl}-3-thienyl)-3-[1-(ethylsulfonyl)-4-piperidinyl]-1H-indole-7-carboxamide trifluoroacetate], the IC50 in assay [1] was no more than 1.5 µM; in assay [2] it was no more than 10 µM.
Turning to `CCCCN(C)Cc1cc(-c2cc(C(N)=O)c3[nH]cc(C4CCN(S(=O)(=O)CC)CC4)c3c2)cs1` [Example 67, 5-(5-{[butyl(methyl)amino]methyl}-3-thienyl)-3-[1-(ethylsulfonyl)-4-piperidinyl]-1H-indole-7-carboxamide trifluoroacetate], the IC50 in assay [1] is no more than 1.5 µM; in assay [2], no more than 10 µM.
As for `CCCN(C)Cc1cc(-c2cc(C(N)=O)c3[nH]cc(C4CCN(S(=O)(=O)CC)CC4)c3c2)cs1` [Example 68, 3-[1-(ethylsulfonyl)-4-piperidinyl]-5-(5-{[methyl(propyl)amino]methyl}-3-thienyl)-1H-indole-7-carboxamide trifluoroacetate], the IC50 is no more than 1.5 µM in assay [1] and no more than 10 µM in assay [2].
Take `CCS(=O)(=O)N1CCC(c2c[nH]c3c(C(N)=O)cc(-c4csc(CN(C)CCN(C)C)c4)cc23)CC1` [Example 69, 5-(5-{[[2-(dimethylamino)ethyl](methyl)amino]methyl}-3-thienyl)-3-[1-(ethylsulfonyl)-4-piperidinyl]-1H-indole-7-carboxamide trifluoroacetate]: the IC50 in assay [1] is no more than 1.5 µM; in assay [2] it was no more than 10 µM.
Take `CCS(=O)(=O)N1CCC(c2c[nH]c3c(C(N)=O)cc(-c4csc(CN(C)CCCN(C)C)c4)cc23)CC1` [Example 70, 5-(5-{[[3-(dimethylamino)propyl](methyl)amino]methyl}-3-thienyl)-3-[1-(ethylsulfonyl)-4-piperidinyl]-1H-indole-7-carboxamide trifluoroacetate]: the IC50 is greater than 1 µM in assay [1] and no more than 10 µM in assay [2].
As for `CCS(=O)(=O)N1CCC(c2c[nH]c3c(C(N)=O)cc(-c4csc(CN(C)C5CCCC5)c4)cc23)CC1` [Example 71, 5-(5-{[cyclopentyl(methyl)amino]methyl}-3-thienyl)-3-[1-(ethylsulfonyl)-4-piperidinyl]-1H-indole-7-carboxamide trifluoroacetate], the IC50 was no more than 1.5 µM in assay [1] and no more than 10 µM in assay [2].
Regarding `CCCCCN(C)Cc1cc(-c2cc(C(N)=O)c3[nH]cc(C4CCN(S(=O)(=O)CC)CC4)c3c2)cs1` [Example 72, 3-[1-(ethylsulfonyl)-4-piperidinyl]-5-(5-{[methyl(pentyl)amino]methyl}-3-thienyl)-1H-indole-7-carboxamide trifluoroacetate], the IC50 in assay [1] was no more than 1.5 µM; in assay [2] it was no more than 10 µM.
